Reference: the NIST ThermoML archive (doi:10.1021/je400970y)

Conditions: Liquid, Closed cell (Static) method

CC(F)(Cl)C(F)(F)F (stereo not given) [2-chloro-1,1,1,2-tetrafluoropropane]
Conditions	vapor or sublimation pressure [kPa]
268.19 K	49.7
270.19 K	54.4
273.18 K	60.5
275.18 K	66.4
278.16 K	74.3
281.15 K	83.9
283.12 K	88.9
286.13 K	100.5
288.11 K	106.5
290.12 K	116
292.13 K	124.6
295.09 K	138.2
298.12 K	151.8
300.09 K	163.5
302.11 K	175.3
304.25 K	185.9
307.02 K	203.2
308.9 K	215.2
310.68 K	227.6
313.35 K	247.9
315.28 K	261.8
318.34 K	286.5
320.84 K	307.9
324.02 K	334.9
325.63 K	351.9
328.81 K	382.6
330.46 K	401.6
333.63 K	435.9
335.25 K	456.6
338.51 K	495.5
339.67 K	510.3
341.68 K	536.4
343.28 K	559.6
345.27 K	588.1
347.07 K	615.8
349.07 K	645.9

C=C(F)C(F)(F)F [2,3,3,3-tetrafluoro-1-propene]
Conditions	vapor or sublimation pressure [kPa]
248.17 K	123.1
251.18 K	138.8
254.21 K	156.9
258.2 K	184.3
260.18 K	198.3
262.18 K	213.8
264.2 K	229.9
266.25 K	248.1
270.26 K	286
271.16 K	295.3
273.21 K	316.5
275.22 K	338.2
277.22 K	361.5
279.14 K	385.1
281.23 K	411.4
285.18 K	466.2
287.22 K	496.4
289.22 K	526.7
291.22 K	558.8
293.25 K	593.4
295.25 K	627.9
297.55 K	672.2
299.19 K	703
301.32 K	746.2
303.25 K	786.5
305.11 K	825.8
306.31 K	852.9
309.51 K	927.9
311.49 K	976.6
313.43 K	1026.2
315.55 K	1082.8
317.23 K	1128.4
319.14 K	1182.9
321.02 K	1237.8
323.79 K	1322.3
325.56 K	1380
326.82 K	1420.8
328.86 K	1490.2
330.87 K	1560.1
332.97 K	1635.8
334.99 K	1711.2
336.99 K	1788.7
338.97 K	1868.1
341.06 K	1955.5
343.04 K	2040.1
345.05 K	2129.1
347.06 K	2221.2
349.05 K	2315.9
351.03 K	2412.1
353.08 K	2516.4
355.03 K	2618.5
357.23 K	2738.3
359.34 K	2856.6
361.05 K	2955.2
